The nature of the data set: Test for API loss according to continuous phase. It counts as physicochemical. As for the experimental part: A dispersed phase was prepared by dissolving a certain amount of the Test Compound (API) in an organic solvent (dichloromethane, DCM), and 1 mL of the prepared dispersed phase was added to each continuous phase and then stirred to measure the amount of the API extracted into the continuous phase.

`CC(C)[C@@]1(C(=O)N[C@H]2CC(=O)O[C@]2(O)CF)CC(c2nccc3ccccc23)=NO1` [Test Compound, (R)-N-((2S,3S)-2-(fluoromethyl)-2-hydroxy-5-oxotetrahydrofuran-3-yl)-5-isopropyl-3-(isoquinolin-1-yl)-4,5-dihydroisoxazole-5-carboxamide]: the “Amount of API extracted into continuous phase (%)” value is, setting by setting: (continuous phase 0.01N HCl) 4.0%; (continuous phase DW, dispersed phase API in DCM, 1 mL) 3.7%; (continuous phase PVA 1 wt %) 24.9%; (continuous phase PVA 1 wt % + 1N HCl) 13.1%; (continuous phase PVA 5 wt %) 59.3%.
